Experimental findings from patent publication US9204653B2, “5-fluoro pyrimidine derivatives” (DOW AGROSCIENCES LLC, priority 2008, dated 2015) are described below.

Where two headings read alike, the source gives them in different places.

The test system of the experiment is Mycosphaerella graminicola; Anamorph: Septoria tritici; Bayer Code SEPTTR. Briefly: Leaf blotch of wheat, foliar fungicide treatment, one day protectant (1DP) or three day curative (3DC). Format: in vivo, Septoria tritici on wheat plants (variety Yuma). The settings on record: Zymoseptoria tritici; for pest or weed control at 50 ppm / pest or weed control at 200 ppm: % disease control rating.

[1] abbreviates: 24 h, one day protectant (1DP), 25 ppm (first 1DP column), percent control rating, read-out: SETTTR 1DP 25 ppm.
[2] abbreviates: 24 h, one day protectant (1DP), 25 ppm as printed (second 1DP column), percent control rating, read-out: SETTTR 1DP 25 ppm.
The mark [3] stands for this setting: 72 h, three day curative (3DC), 25 ppm, percent control rating, read-out: SEPTTR 3DC 25 ppm.
[4] abbreviates: 72 h, three day curative (3DC), percent control rating, read-out: SEPTTR 3DC 100 ppm.
The mark [5] stands for this setting: 24 h, one day protectant (1DP), 25 ppm, rating of percent disease control, read-out: SETTTR 1DP 25 ppm.
[6] abbreviates: 24 h, one day protectant (1DP), rating of percent disease control, read-out: SEPTTR 1DP 100 ppm.
Setting [7] is: 72 h, three day curative (3DC), 25 ppm, rating of percent disease control, read-out: SEPTTR 3DC 25 ppm.
The mark [8] stands for this setting: 72 h, three day curative (3DC), rating of percent disease control, read-out: SEPTTR 3DC 100 ppm.
Setting [9] is: 24 h, one day protectant, 25 ppm, rating of percent disease control, read-out: SETTTR 1DP 25 ppm.
Where [10] appears, read: 24 h, one day protectant, rating of percent disease control, read-out: SEPTTR 1DP 100 ppm.
Setting [11] is: 72 h, three day curative, 25 ppm, rating of percent disease control, read-out: SEPTTR 3DC 25 ppm.
Where [12] appears, read: 72 h, three day curative, rating of percent disease control, read-out: SEPTTR 3DC 100 ppm.
Setting [13] is: 24 h, one day protectant (1DP), 25 ppm, percent disease control rating, read-out: SETTTR 1DP 25 ppm.
[14] abbreviates: 24 h, one day protectant (1DP), percent disease control rating, read-out: SEPTTR 1DP 100 ppm.
[15] abbreviates: 72 h, three day curative (3DC), 25 ppm, percent disease control rating, read-out: SEPTTR 3DC 25 ppm.
Setting [16] is: 72 h, three day curative (3DC), percent disease control rating, read-out: SEPTTR 3DC 100 ppm.

As for `O=S(=O)(Nc1nc(OCc2ccccc2)ncc1F)c1ccccc1` [Compound 1010], the pest or weed control at 25 ppm is 0 to 25% under setting [1], 0 to 25% under setting [2] and 0 to 25% under setting [3]. Also, the pest or weed control at 100 ppm under setting [4] lay in the range of 0 to 25%.

Consider `Fc1ccc(COc2ncc(F)c(NCC(F)(F)F)n2)cc1` [Compound 833], for which, under “24 h, one day protectant”, the pest or weed control at 50 ppm lay within 26 to 50% and the pest or weed control at 200 ppm lay within 51 to 75%.

With `COc1ncc(F)c(N(O)Cc2ccc(Cl)nc2)n1` [Compound 1054], the pest or weed control at 25 ppm runs as follows: under setting [1], 0 to 25%; under setting [2], 0 to 25%; under setting [3], 0 to 25%. Besides, the pest or weed control at 100 ppm under setting [4] is 0 to 25%.

For the compound `Nc1nc(OCc2cn3ccccc3n2)ncc1F` [Compound 307], the pest or weed control at 25 ppm was in the range of 76 to 100% under setting [5] and 76 to 100% under setting [7]. The pest or weed control at 100 ppm fell in the range of 76 to 100% under setting [6] and 76 to 100% under setting [8].

For the compound `COc1ccc(COc2ncc(F)c(N)n2)c(Cl)c1OC` [Compound 698], the pest or weed control at 25 ppm lay in the range of 76 to 100% under setting [9] and 76 to 100% under setting [11]. The pest or weed control at 100 ppm was in the range of 76 to 100% under setting [10] and 76 to 100% under setting [12].

Turning to `COc1cc(COc2ncc(F)c(N)n2)c(OC)cc1C` [Compound 450], the pest or weed control at 25 ppm under setting [5] fell in the range of 76 to 100% and the pest or weed control at 25 ppm under setting [7] is 76 to 100%. The pest or weed control at 100 ppm under setting [6] was 76 to 100% and the pest or weed control at 100 ppm under setting [8] lay in the range of 51 to 75%.

In the case of `COc1cc(COc2ncc(F)c(N)n2)cc(OC)c1` [Compound 623], the pest or weed control at 25 ppm was in the range of 76 to 100% under setting [9] and 51 to 75% under setting [11]. Besides, the pest or weed control at 100 ppm was 76 to 100% under setting [10] and 76 to 100% under setting [12].

As for `COCCOC(=O)Nc1nc(OCc2cccc(OC)c2)ncc1F` [Compound 459], the pest or weed control at 25 ppm is, setting by setting: under setting [5], 51 to 75%; under setting [7], 76 to 100%. For the same compound, the pest or weed control at 100 ppm runs as follows: under setting [6], 76 to 100%; under setting [8], 76 to 100%.

Regarding `COc1ncc(F)c(NOCc2ccco2)n1` [Compound 1053], the pest or weed control at 25 ppm by setting is: under setting [1], 0 to 25%; under setting [2], 0 to 25%; under setting [3], 0 to 25%. In addition, under setting [4], the pest or weed control at 100 ppm was 0 to 25%.

As to `Cc1coc(C)c1C(=O)Nc1nc(O)ncc1F` [Compound 977], the pest or weed control at 25 ppm was 0 to 25% under setting [1], 51 to 75% under setting [2] and 0 to 25% under setting [3]. The pest or weed control at 100 ppm under setting [4] was 76 to 100%.

`CNN(C)c1nc(OCc2ccc(F)cc2)ncc1F` [Compound 397]: the pest or weed control at 25 ppm lay within 0 to 25% under setting [5] and 0 to 25% under setting [7]. Moreover, the pest or weed control at 100 ppm runs as follows: under setting [6], 0 to 25%; under setting [8], 0 to 25%.

As for `O=C(Nc1nc(OCc2ccc(F)cc2)ncc1F)c1snc(Cl)c1Cl` [Compound 12, 3,4-Dichloroisothiazole-5-carboxylic acid [5-fluoro-2-(4-fluorobenzyl-oxy)pyrimidin-4-yl]amide], the pest or weed control at 25 ppm fell in the range of 76 to 100% under setting [13] and 76 to 100% under setting [15]. For the same compound, the pest or weed control at 100 ppm under setting [14] is 76 to 100% and the pest or weed control at 100 ppm under setting [16] was in the range of 76 to 100%.

In the case of `O=C(CCl)Nc1nc(OCc2ccc(F)cc2)ncc1F` [Compound 672], the pest or weed control at 25 ppm by setting is: under setting [9], 76 to 100%; under setting [11], 76 to 100%. The pest or weed control at 100 ppm under setting [10] was 76 to 100% and the pest or weed control at 100 ppm under setting [12] fell in the range of 76 to 100%.

Regarding `COCCOC(=O)Nc1nc(OCc2cccc(C#N)c2)ncc1F` [Compound 668], the pest or weed control at 25 ppm under setting [9] lay within 26 to 50% and the pest or weed control at 25 ppm under setting [11] lay within 76 to 100%. Moreover, the pest or weed control at 100 ppm runs as follows: under setting [10], 76 to 100%; under setting [12], 76 to 100%.

With `CN(C)/C=N/c1nc(Cl)ncc1F` [Compound 252], the pest or weed control at 25 ppm under setting [5] was in the range of 26 to 50% and the pest or weed control at 25 ppm under setting [7] lay in the range of 0 to 25%. The pest or weed control at 100 ppm is 26 to 50% under setting [6] and 0 to 25% under setting [8].

In the case of `CCOC(=O)COC(=O)Nc1nc(OCc2ccc(F)cc2)ncc1F` [Compound 295], the pest or weed control at 25 ppm under setting [5] is 76 to 100% and the pest or weed control at 25 ppm under setting [7] lay within 76 to 100%. Moreover, the pest or weed control at 100 ppm fell in the range of 76 to 100% under setting [6] and 76 to 100% under setting [8].

For the compound `CN(C)/C=N/c1nc(OCOC(=O)c2ccccc2)ncc1F` [Compound 1085], the pest or weed control at 25 ppm by setting is: under setting [1], 76 to 100%; under setting [2], 76 to 100%; under setting [3], 76 to 100%. Moreover, the pest or weed control at 100 ppm under setting [4] lay within 76 to 100%.

For the compound `Fc1cnc(OCc2ccco2)nc1N1CCOCC1` [Compound 944], where the note is “24 h, one day protectant”, the pest or weed control at 50 ppm fell in the range of 0 to 25% and the pest or weed control at 200 ppm lay in the range of 0 to 25%.

For the compound `C=CCOc1ncc(F)c(NNc2cccc(F)n2)n1` [Compound 1086], the pest or weed control at 25 ppm is, setting by setting: under setting [1], 0 to 25%; under setting [2], 0 to 25%; under setting [3], 0 to 25%. Further, under setting [4], the pest or weed control at 100 ppm was 0 to 25%.

As to `Nc1nc(OCCCc2ccncc2)ncc1F` [Compound 768], the pest or weed control at 25 ppm lay in the range of 0 to 25% under setting [5] and 0 to 25% under setting [7]. Besides, the pest or weed control at 100 ppm runs as follows: under setting [6], 26 to 50%; under setting [8], 26 to 50%.

Take `CC(C)(C)NC(=O)Nc1nc(O)ncc1F` [Compound 975]: the pest or weed control at 25 ppm by setting is: under setting [1], 0 to 25%; under setting [2], 0 to 25%; under setting [3], 0 to 25%. Besides, the pest or weed control at 100 ppm under setting [4] lay within 0 to 25%.

Regarding `COc1cccc(COc2ncc(F)c(NNc3ccccc3)n2)c1` [Compound 306], the pest or weed control at 25 ppm was in the range of 0 to 25% under setting [5] and 26 to 50% under setting [7]. The pest or weed control at 100 ppm reads like this: under setting [6], 76 to 100%; under setting [8], 26 to 50%.

For `CCOC(=O)Nc1nc(OCc2cccc(OC)c2)ncc1F` [Compound 276], the pest or weed control at 25 ppm runs as follows: under setting [5], 76 to 100%; under setting [7], 76 to 100%. The pest or weed control at 100 ppm reads like this: under setting [6], 76 to 100%; under setting [8], 76 to 100%.

For the compound `O=C(Nc1nc(OCc2ccc(F)cc2)ncc1F)OCc1ccccc1` [Compound 220], the pest or weed control at 25 ppm under setting [5] lay in the range of 76 to 100% and the pest or weed control at 25 ppm under setting [7] was 76 to 100%. Besides, the pest or weed control at 100 ppm by setting is: under setting [6], 76 to 100%; under setting [8], 76 to 100%.

In the case of `CCCNC(=O)N(C(=O)NCCC)c1nc(OCc2cccc(F)c2)ncc1F` [Compound 445], the pest or weed control at 25 ppm by setting is: under setting [5], 51 to 75%; under setting [7], 76 to 100%. In addition, the pest or weed control at 100 ppm reads like this: under setting [6], 76 to 100%; under setting [8], 76 to 100%.

Regarding `COc1ccccc1COc1ncc(F)c(/N=C/N(C)C)n1` [Compound 405], the pest or weed control at 25 ppm reads like this: under setting [5], 76 to 100%; under setting [7], 76 to 100%. Also, the pest or weed control at 100 ppm runs as follows: under setting [6], 76 to 100%; under setting [8], 76 to 100%.

In the case of `O=C(Nc1nc(OCc2ccccc2)ncc1F)OCc1ccccc1` [Compound 298], the pest or weed control at 25 ppm is, setting by setting: under setting [5], 76 to 100%; under setting [7], 76 to 100%. For the same compound, the pest or weed control at 100 ppm was 76 to 100% under setting [6] and 76 to 100% under setting [8].

Consider `COc1ccccc1COc1ncc(F)c(NCOCc2ccccc2)n1` [Compound 354], for which the pest or weed control at 25 ppm lay within 51 to 75% under setting [5] and 26 to 50% under setting [7]. Besides, the pest or weed control at 100 ppm under setting [6] was 76 to 100% and the pest or weed control at 100 ppm under setting [8] is 76 to 100%.

As for `COCCOC(=O)Nc1nc(OCc2ccc(F)cc2)ncc1F` [Compound 280], the pest or weed control at 25 ppm runs as follows: under setting [5], 76 to 100%; under setting [7], 76 to 100%. Further, the pest or weed control at 100 ppm reads like this: under setting [6], 76 to 100%; under setting [8], 76 to 100%.

On to `Cc1ccc(CNc2nc(OCc3cccs3)ncc2F)cc1` [Compound 922], for which, for the setting “24 h, one day protectant”, the pest or weed control at 50 ppm lay within 51 to 75% and the pest or weed control at 200 ppm is 26 to 50%.

Turning to `CC(C)(C)NNc1nc(O)ncc1F` [Compound 1092], the pest or weed control at 25 ppm runs as follows: under setting [1], 0 to 25%; under setting [2], 26 to 50%; under setting [3], 0 to 25%. The pest or weed control at 100 ppm under setting [4] lay within 26 to 50%.

As to `Cn1ccc(COc2ncc(F)c(N)n2)n1` [Compound 55], the pest or weed control at 25 ppm by setting is: under setting [13], 76 to 100%; under setting [15], 76 to 100%. Also, the pest or weed control at 100 ppm fell in the range of 76 to 100% under setting [14] and 76 to 100% under setting [16].

On to `Nc1nc(COc2ccc(COc3ncc(F)c(N)n3)cc2)ncc1F` [Compound 546], for which the pest or weed control at 25 ppm runs as follows: under setting [5], 51 to 75%; under setting [7], 51 to 75%. The pest or weed control at 100 ppm is, setting by setting: under setting [6], 51 to 75%; under setting [8], 0 to 25%.
